Laboratory results reported in PMC9313812, “The Pseudo‐Natural Product Rhonin Targets RHOGDI” (Angewandte Chemie (International Ed. in English), 2022).
Where two headings read alike, the source gives them in different places.

Columns and labels:
[1] = target: T1, RHOGDI1 (Homo sapiens, UniProt P52565); assay: Fluorescence polarization binding of probe 10; details: fluorescence polarization; read-out: KD (RHOGDI1Δ15)
T1 construct: GST; made in house; host or cells: E. coli (XL1-Blue / BL21)
Procedure: (§1) Fluorescence polarization
(§2) The binding of probe 10 to RHOGDI1-3 was confirmed by fluorescence polarization experiments. RHOGDI1 was titrated against 0.5 µM of the fluorescent Rhonin derivative 10 in buffer containing 20 mM Hepes, pH 7.4, 150 mM NaCl, 5 mM MgCl2, 3 mM DTT and incubated for 1 h. The change in fluorescence polarization was monitored at an excitation / emission wavelengths of 535 nm and 593 nm, respectively. […]
(§3) Protein expression and purification
(§4) RHOGDI1 delta15, RHOGDI1 delta25, RHOGDI1-3 were produced in E. coli (XL1-Blue) as a GST recombinant protein as described previously.[9] In summary, protein were expressed in E.coli BL21 upon addition of IPTG overnight. Cell were collected and lysed in a lysis buffer, containing 30 mM Tris-NaOH pH 7.4, 150 mM NaCl, 1 mM DTT, and 5 mM MgCl2. Cells were further lysed using sonication. After centrifugation (20 min at 20,000 g) of lysate, the clear supernatant was used for purification in an ÄKTAprime system connected to a GSH column […]
(§5) Insect cell purification system was used for expression and purification of prenylated proteins based on an established protocol.[9] Sf9/or TNAO38 insect cells (Sf9 used only for virus generation and amplification) were grown to the level of 1.5×10^6 cells/ml before they were transduced with Baculoviruses encoding genes related to the RHO GTPases. Cells were resuspended in lysis buffer, containing 20 mM HEPES-NaOH pH 7.4, 150 mM NaCl, 2 mM β-mercaptoethanol, 5 mM MgCl2, 0.1 mM GDP, 10 mM imidazole and the optimized detergents including 1% CHAPS and 0.5% sodium cholate .[9] Cells were lysed by s onication in ice. After
T1 sequence (P52565 16-204): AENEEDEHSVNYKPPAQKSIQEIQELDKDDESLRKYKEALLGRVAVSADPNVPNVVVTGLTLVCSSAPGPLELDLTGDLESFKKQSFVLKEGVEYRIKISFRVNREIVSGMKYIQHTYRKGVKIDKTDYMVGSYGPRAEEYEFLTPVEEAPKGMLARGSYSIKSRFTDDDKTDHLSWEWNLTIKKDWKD

[2] = target: T2, RHOGDI1 (Homo sapiens, UniProt P52565); assay: Fluorescence polarization binding of probe 10; details: fluorescence polarization; read-out: KD (RHOGDI1Δ25)
T2 construct: GST; made in house; host or cells: E. coli (XL1-Blue / BL21)
Procedure: as §1, §2, §3, §4, §5
T2 sequence (P52565 26-204): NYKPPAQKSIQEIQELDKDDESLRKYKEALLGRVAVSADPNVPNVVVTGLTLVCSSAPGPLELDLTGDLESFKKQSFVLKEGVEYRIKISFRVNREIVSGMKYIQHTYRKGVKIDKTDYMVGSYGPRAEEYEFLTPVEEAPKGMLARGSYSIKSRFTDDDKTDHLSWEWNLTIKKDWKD

[3] = target: RHOGDI1 (Homo sapiens, UniProt P52565); assay: Fluorescence polarization binding of probe 10; details: range from Figure 4e; read-out: KD, measured affinity between probe 10 and RHOGDI1
Procedure: as §1, §2, §3, §4, §5
Target sequence in this assay (P52565 2-204): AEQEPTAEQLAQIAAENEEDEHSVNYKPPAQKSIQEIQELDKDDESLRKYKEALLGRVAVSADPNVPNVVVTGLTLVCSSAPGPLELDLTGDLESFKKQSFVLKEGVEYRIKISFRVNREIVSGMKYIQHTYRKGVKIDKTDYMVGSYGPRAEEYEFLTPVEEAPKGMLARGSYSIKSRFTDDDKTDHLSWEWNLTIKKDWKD

[4] = target: T3, RHOGDI2 (Homo sapiens, UniProt P52566); assay: Fluorescence polarization binding of probe 10
T3 construct: GST; made in house; host or cells: E. coli (XL1-Blue / BL21)
T3 sequence (P52566 whole entry, species assumed): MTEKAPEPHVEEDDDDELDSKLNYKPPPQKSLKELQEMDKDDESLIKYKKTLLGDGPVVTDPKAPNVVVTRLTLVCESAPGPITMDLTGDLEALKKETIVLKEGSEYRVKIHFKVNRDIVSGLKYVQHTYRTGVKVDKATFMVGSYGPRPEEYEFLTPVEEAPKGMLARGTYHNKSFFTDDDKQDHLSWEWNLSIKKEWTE
Procedure: as §1, §2, §3, §4, §5

[5] = target: T4, RHOGDI3 (Homo sapiens, UniProt Q99819); assay: Fluorescence polarization binding of probe 10
T4 construct: GST; made in house; host or cells: E. coli (XL1-Blue / BL21)
T4 sequence (Q99819 whole entry, species assumed): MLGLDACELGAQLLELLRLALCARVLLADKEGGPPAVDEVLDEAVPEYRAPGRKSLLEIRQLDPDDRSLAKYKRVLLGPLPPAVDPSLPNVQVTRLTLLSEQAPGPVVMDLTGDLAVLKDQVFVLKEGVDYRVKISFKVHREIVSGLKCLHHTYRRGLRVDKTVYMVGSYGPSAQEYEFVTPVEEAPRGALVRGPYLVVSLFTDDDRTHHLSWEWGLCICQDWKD
Procedure: as §1, §2, §3, §4, §5

[6] = target: T5, PDEδ (Homo sapiens, UniProt O43924); assay: Fluorescence polarization, direct binding of probe 10; details: 10 nM probe 10, titration of PDEδ
T5 construct: GST (N); made in house; host or cells: E. coli Rosetta 2
T5 sequence (O43924 whole entry): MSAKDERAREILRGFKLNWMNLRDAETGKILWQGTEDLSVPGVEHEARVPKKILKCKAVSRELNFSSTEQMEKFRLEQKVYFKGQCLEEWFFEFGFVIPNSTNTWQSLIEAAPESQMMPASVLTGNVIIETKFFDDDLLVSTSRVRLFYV
Procedure: RHOGDI1 displaced liposome -bound RAC1 from the surface of L1 chip with a koff of 0.016 […]
bound RAC1. Calculated rate constants by mono-exponential fitting of RU decays were 0.02 and 0.032 s-1 for RHOGDI1-mediated RAC1 displacement from the liposomes in the presence of 7a and 7d, respectively. (d) Competition-based fluorescence polarization experiments were performed by titration of 7a against 10 nM fluorescein-labelled atorvastatin and GST-PDEδ.
(e) Fluorescence polarization experiment using 10 nM probe 10 and titration of PDEδ.
(1 picture or pasted object on this page, not shown here)
Label-free quantification (LFQ) intensities were logarithmized (log2) and proteins, which were not three times quantified in at least one of the groups, were filtered off. […]
as §1
The binding of probe 10 to RHOGDI1-3 was confirmed by fluorescence polarization experiments. […] The change in fluorescence polarization was monitored at an excitation / emission wavelengths of 535 nm and 593 nm, respectively. […]
To determine the effect of 7a on the binding of RHOGDI1 to non-prenylated RAC1-GDP, fluorescence polarization measurements were performed by titrating 1 µM TAMRA-GDP-bound RAC1 with increasing concentrations of RHOGDI1 in the presence and absence of 50 µM 7a in buffer containing 30 mM Tris-HCl, pH 7.5, 150 mM NaCl, 5 mM MgCl2, 1% DMSO. […]

Kd [1]: 8.51 µM
Kd [2]: 3.09 µM
Kd [3]: 3.1 to 8.5 µM
Kd [4]: 9.08 µM
Kd [5]: 11.5 µM
SMILES: COC(=O)C1(C(CC(=O)c2ccccc2)c2ccc(C(=O)NCCOCCOCCNC(=O)CCc3ccc4n3[B-](F)(F)[N+]3=C(c5ccc[nH]5)C=CC3=C4)cc2)N=C(c2ccc(Br)cc2)C2C(=O)N(C)C(=O)C21 (stereo not drawn) [compound 10]
Binding of probe to PDEδ (in words) [6]: binds to PDEδ only at higher concentrations
